Measured values taken from US20060160756A1, “Treatment and prevention of multi-drug resistance” (priority 2004, published 2006).
Read-outs that look alike come from different tables or passages of the source. Each block holds one molecule with its values, some of them ahead of it.

What was measured:
[1] = tested on: K562/adriamycin-resistant cells; test: MTT assay: dofediquar effect on ADM cytotoxicity / growth of MDR cells; format: cell-based; details: for Growth rate (% of control): 2nd incubation (24 hr) without MS-209, MS-209 3 μM where present
[2] = Concentrations of dofediquar in plasma and tumor tissue after single oral administration in colon 26-bearing mice; format: in vivo; details: for Concentration of MS-209, Plasma / Concentration of MS-209, Tumor: mean ± SD of N = 3
[3] = tested on: drug-resistant cancer cell lines; test: In vitro studies using drug-resistant cancer cell lines (effective concentration); format: cell-based
Method: The effective concentration of dofediquar of about 3 μM (ca. 2 μg/mL) indicated in in vitro studies using drug-resistant cancer cell lines, is achieved at doses of 300 mg or higher.

[4] = Pharmacokinetics of dofediquar after single oral administration to fasted healthy male volunteers; format: in vivo, healthy male Japanese adults; details: for AUC / Cmax / Tmax / t½: mean ± S.D.
Method: The pharmacokinetic parameters of dofediquar (MS-209) are investigated in fasted healthy male Japanese adults. The study design is described in Table 2. The plasma concentrations of dofediquar after single oral administration of increasing doses from 100 to 1200 mg to fasted healthy male Japanese adults is illustrated in FIGS. 2 and 3.

[5] = 0.5 h after single oral 200 mg/kg
[6] = 1 h after single oral 200 mg/kg
[7] = 2 h after single oral 200 mg/kg
[8] = 5 h after single oral 200 mg/kg
[9] = 24 h after single oral 200 mg/kg
[10] = 100 mg single oral dose, fasted
[11] = 300 mg single oral dose, fasted
[12] = 600 mg single oral dose, fasted
[13] = 900 mg single oral dose, fasted
[14] = 1200 mg single oral dose, fasted
[15] = single oral doses 100 to 1200 mg

SMILES: COc1cccc2c1C(=O)c1c(O)c3c(c(O)c1C2=O)C[C@@](O)(C(=O)CO)C[C@@H]3O[C@H]1C[C@H](N)[C@H](O)[C@H](C)O1 [ADM, adriamycin]
- Growth rate (% of control) ([1]; ADM 100 ng/ml, 1st incubation 1 hr): 93.4 % of control
- Growth rate (% of control) ([1]; ADM 100 ng/ml, 1st incubation 3 hr): 102 % of control
- Growth rate (% of control) ([1]; ADM 100 ng/ml, 1st incubation 6 hr): 92.0 % of control
- Growth rate (% of control) ([1]; ADM 300 ng/ml, 1st incubation 1 hr): 88.1 % of control
- Growth rate (% of control) ([1]; ADM 300 ng/ml, 1st incubation 6 hr): 100 % of control

- Concentration of MS-209, Plasma [2, 5]: 25.6 ± 9.3 µg/mL
- Concentration of MS-209, Tumor [2, 5]: 15.9 ± 8.1 µg/g
- Concentration of MS-209, Plasma [2, 6]: 33.0 ± 6.3 µg/mL
- Concentration of MS-209, Tumor [2, 6]: 30.6 ± 7.5 µg/g
- Concentration of MS-209, Plasma [2, 7]: 27.3 ± 7.0 µg/mL
- Concentration of MS-209, Tumor [2, 7]: 28.0 ± 9.4 µg/g
- Concentration of MS-209, Plasma [2, 8]: 24.6 ± 10 µg/mL
- Concentration of MS-209, Tumor [2, 8]: 25.8 ± 10 µg/g
- Concentration of MS-209, Plasma [2, 9]: 0.61 ± 0.41 µg/mL
- Concentration of MS-209, Tumor [2, 9]: 0.52 ± 0.49 µg/g
- AUC, Plasma ([2]; single oral 200 mg/kg): 368 µg·h/mL
- AUC, Tumor ([2]; single oral 200 mg/kg): 376 µg·h/g
- AUC [4, 10]: 0.72 ± 0.21 µg·h/mL
- Cmax [4, 10]: 0.47 ± 0.20 µg/mL
- Tmax [4, 10]: 1.04 ± 0.40 h
- t½ [4, 10]: 0.89 ± 0.37 h
- AUC [4, 11]: 7.29 ± 2.54 µg·h/mL
- Cmax [4, 11]: 2.70 ± 0.74 µg/mL
- Tmax [4, 11]: 1.04 ± 0.40 h
- t½ [4, 11]: 1.17 ± 0.25 h
- AUC [4, 12]: 32.47 ± 5.94 µg·h/mL
- Cmax [4, 12]: 10.11 ± 2.14 µg/mL
- Tmax [4, 12]: 0.75 ± 0.22 h
- t½ [4, 12]: 2.25 ± 0.47 h
- AUC [4, 13]: 62.90 ± 9.67 µg·h/mL
- Cmax [4, 13]: 14.03 ± 2.48 µg/mL
- Tmax [4, 13]: 1.67 ± 0.68 h
- t½ [4, 13]: 2.39 ± 0.37 h
- AUC [4, 14]: 105.39 ± 20.10 µg·h/mL
- Cmax [4, 14]: 20.99 ± 2.15 µg/mL
- Tmax [4, 14]: 1.00 ± 0.27 h
- t½ [4, 14]: 3.10 ± 0.31 h
- Detection in plasma ([4]; dose of 10 mg, single oral): not detected
- Detection in plasma ([4]; dose of 30 mg, single oral): detected in one of 6 subjects
- Manner of decline of plasma concentration after the peak ([4]; doses of 100 mg or higher, single oral): declines in a monophasic manner
- Dose at which the effective concentration of about 3 μM (ca. 2 μg/mL) is achieved in plasma ([4]; single oral dose, fasted): ≥ 300 mg
- Dose dependence of Tmax [4, 15]: does not change
- Dose dependence of half-life [4, 15]: increases with increasing dose
SMILES: O=C(C(c1ccccc1)c1ccccc1)N1CCN(CC(O)COc2cccc3ncccc23)CC1 (stereo not drawn) [dofediquar]
- Cell growth inhibition with vs without dofediquar during the 2nd incubation ([1]; co-treated with adriamycin (100-300 ng/ml) and dofediquar (3 μM), then 2nd incubation (24 hr) with dofediquar alone): slightly more inhibited
- Enhancement of ADM cytotoxicity ([1]; pretreated with 3 μM dofediquar for 24 hours, washed away, then ADM alone for 72 hours (FIG. 1)): does not show an enhancement of ADM cytotoxicity
- Effective concentration [3]: about 3 μM
- Effective concentration ([3]; same value as 3 μM): ca. 2 μg/mL
- Dose dependence of Cmax and AUC [4, 15]: increase more steeply than expected from the dose increase
